# Assay results as given in PMC10517971, “An inverse agonist of orphan receptor GPR61 acts by a G protein-competitive allosteric mechanism” (Nature Communications, 2023).
# pIC50: −log10 of the molar value. Where “and” joins values, the source holds several entries; their conditions need not be identical. Equal values may be shown once.
# Key:
# [1] = molecular target: T1, human GPR61 (Homo sapiens, UniProt Q9BZJ8); experiment: Functional cAMP assay (HTRF), stable CHO TREx human GPR61 cells; format: cell-based
# T1 construct: expressed in transfected cells; host or cells: CHO-K1, transient (Fugene6)
# T1 sequence (Q9BZJ8 whole entry): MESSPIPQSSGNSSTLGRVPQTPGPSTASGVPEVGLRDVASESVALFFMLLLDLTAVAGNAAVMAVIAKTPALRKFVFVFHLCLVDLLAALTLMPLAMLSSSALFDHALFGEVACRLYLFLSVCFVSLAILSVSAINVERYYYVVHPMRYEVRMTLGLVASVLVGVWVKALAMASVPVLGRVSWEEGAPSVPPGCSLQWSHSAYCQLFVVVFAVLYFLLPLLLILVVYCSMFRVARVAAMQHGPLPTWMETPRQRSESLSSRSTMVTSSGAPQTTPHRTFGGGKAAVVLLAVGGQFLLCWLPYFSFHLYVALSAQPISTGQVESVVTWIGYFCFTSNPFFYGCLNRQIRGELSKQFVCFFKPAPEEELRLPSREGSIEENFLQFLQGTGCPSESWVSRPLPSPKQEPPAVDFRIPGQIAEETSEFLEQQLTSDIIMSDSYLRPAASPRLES
# Source text: (§1) The human GPR61 (reference sequence NM_031936.4) cDNA was synthesized and subcloned into pcDNA5/FRT/TO (Thermo Fisher, Pittsburgh, PA). The pcDNA5/FRT/TO/ human GPR61 plasmid was then transfected into the Flp-In™-CHO Cell Line (Thermo Fisher, Pittsburgh, PA) and a doxycycline-inducible clonal cell line was selected (CHO TREx hGPR61 WT). Sequences encoding untagged and HiBit/hemagglutinin (HA)-tagged versions of the wild-type human GPR61 were synthesized and cloned into pcDNA3.1. The HiBit ([…]) and HA ([…]) tags were sequentially included after the N-terminal initiator methionine. Four single amino acid substitutions (N137A, R140A, V288A, N345A) were then introduced in the untagged and tagged human GPR61 constructs using site-specific mutagenesis. The nucleotide sequences of all receptor constructs were confirmed by automated DNA sequencing.
# A homogeneous Time-Resolved Fluorescence (HTRF) assay (Perkin Elmer, Dynamic2 kit #) was used to assess receptor basal and inverse agonist activity at human GPR61, GPR62, and GPR101. For routine inverse agonist screening frozen CHO TREx human GPR61, GPR62 and GPR101 cells were used. […] Data were analyzed using the ratio of fluorescence intensity at 620 and 665 nm for each well, extrapolated from the cAMP standard curve to express data as nM cAMP for each well. […]
# [2] = molecular target: T2, human GPR61 R140A (Homo sapiens, UniProt Q9BZJ8, R140A); experiment: Functional cAMP assay (HTRF), transiently transfected CHO-K1 cells, GPR61 R140A mutant; format: cell-based
# T2 construct: expressed in transfected cells; host or cells: CHO-K1, transient (Fugene6)
# T2 sequence (Q9BZJ8 whole entry R140A): as the sequence (Q9BZJ8 whole entry) above, with R140A counted along it
# Source text: as §1
# Parental CHO-K1 cells were maintained at 37 °C in a humidified environment (5% CO2) and grown in Dulbecco’s Modified Eagle Medium (DMEM) F-12 media (Gibco, 11320033) supplemented with 10% FBS, 1% Glutamax (Gibco, 35050061) and 100units/ml penicillin and streptomycin (Gibco, 15140122. Cells were dissociated using a cell dissociation solution (Gibco, 13151-014), counted, and resuspended in complete culture media without antibiotics. Cells were then transiently transfected using Fugene6 (Promega) in a 384-well plate format (Corning, 3570). For each well, 7500 cells were transfected with 5 ng of receptor plasmid, 20 ng of carrier DNA (Promega, PAE4881) and 0.075 μl Fugene6 in a final volume of 25 μl. […] Surface and total receptor expression was measured separately by adding 25 μl per well of the extracellular (Promega, PRN2421) and lytic (Promega, PRN3040) assay solutions, respectively. Plates were incubated for 10 min at room temperature on a shaker and luciferase activity was measured using an EnVision plate reader (Perkin Elmer, Chicago, IL). […]
# A homogeneous Time-Resolved Fluorescence (HTRF) assay (Perkin Elmer, Dynamic2 kit #) was used to assess receptor basal and inverse agonist activity at human GPR61, GPR62, and GPR101. […]
# [3] = molecular target: Human PDE2A1 (Homo sapiens, UniProt O00408); experiment: Phosphodiesterase Assay (SPA); format: biochemical
# Human PDE2A1, sequence (O00408 1-920 isoform O00408-2): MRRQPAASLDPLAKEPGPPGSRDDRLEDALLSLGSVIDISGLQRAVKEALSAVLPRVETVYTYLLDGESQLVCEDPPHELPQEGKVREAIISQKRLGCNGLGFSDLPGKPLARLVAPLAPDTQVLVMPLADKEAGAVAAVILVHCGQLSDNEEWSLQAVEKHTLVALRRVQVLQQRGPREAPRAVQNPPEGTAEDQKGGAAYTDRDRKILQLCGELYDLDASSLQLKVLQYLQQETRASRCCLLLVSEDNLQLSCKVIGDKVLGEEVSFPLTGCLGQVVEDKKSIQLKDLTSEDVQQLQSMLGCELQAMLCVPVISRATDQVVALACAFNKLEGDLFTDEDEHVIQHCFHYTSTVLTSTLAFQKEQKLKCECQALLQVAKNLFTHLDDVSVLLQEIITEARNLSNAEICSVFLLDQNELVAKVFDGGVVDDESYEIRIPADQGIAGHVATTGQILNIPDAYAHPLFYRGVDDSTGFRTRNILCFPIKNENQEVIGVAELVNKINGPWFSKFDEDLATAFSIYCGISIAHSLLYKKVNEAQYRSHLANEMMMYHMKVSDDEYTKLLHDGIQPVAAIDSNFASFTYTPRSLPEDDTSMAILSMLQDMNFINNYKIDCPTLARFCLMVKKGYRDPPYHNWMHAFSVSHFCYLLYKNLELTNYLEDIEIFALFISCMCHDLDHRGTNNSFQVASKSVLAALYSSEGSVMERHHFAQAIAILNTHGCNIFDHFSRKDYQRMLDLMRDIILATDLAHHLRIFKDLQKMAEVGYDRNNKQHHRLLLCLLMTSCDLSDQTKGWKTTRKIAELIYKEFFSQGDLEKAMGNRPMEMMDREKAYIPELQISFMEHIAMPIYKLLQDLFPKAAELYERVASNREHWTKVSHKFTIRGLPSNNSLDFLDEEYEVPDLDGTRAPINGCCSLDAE
# [4] = molecular target: T3, human GPR61 N345A (Homo sapiens, UniProt Q9BZJ8, N345A); experiment: Functional cAMP assay (HTRF), transiently transfected CHO-K1 cells, GPR61 N345A mutant; format: cell-based; conditions: at up to 10 μM concentration
# T3 construct: expressed in transfected cells; host or cells: CHO-K1, transient (Fugene6)
# T3 sequence (Q9BZJ8 whole entry N345A): as the sequence (Q9BZJ8 whole entry) above, with N345A counted along it
# Source text: as §1, with “Four single amino acid substitutions (N137A, R140A, V288A, N345A) were then introduced in the untagged and tagged human GPR61 constructs using site-specific mutagenesis. The nucleotide sequences of all receptor constructs were confirmed by automated DNA sequencing.” left out
# Parental CHO-K1 cells were maintained at 37 °C in a humidified environment (5% CO2) and grown in Dulbecco’s Modified Eagle Medium (DMEM) F-12 media (Gibco, 11320033) supplemented with 10% FBS, 1% Glutamax (Gibco, 35050061) and 100units/ml penicillin and streptomycin (Gibco, 15140122. Cells were dissociated using a cell dissociation solution (Gibco, 13151-014), counted, and resuspended in complete culture media without antibiotics. Cells were then transiently transfected using Fugene6 (Promega) in a 384-well plate format (Corning, 3570). For each well, 7500 cells were transfected with 5 ng of receptor plasmid, 20 ng of carrier DNA (Promega, PAE4881) and 0.075 μl Fugene6 in a final volume of 25 μl. […]
# [5] = molecular target: Human PED9A1 (Homo sapiens, UniProt O76083); experiment: Phosphodiesterase Assay (SPA); format: biochemical
# Human PED9A1, sequence (O76083 whole entry): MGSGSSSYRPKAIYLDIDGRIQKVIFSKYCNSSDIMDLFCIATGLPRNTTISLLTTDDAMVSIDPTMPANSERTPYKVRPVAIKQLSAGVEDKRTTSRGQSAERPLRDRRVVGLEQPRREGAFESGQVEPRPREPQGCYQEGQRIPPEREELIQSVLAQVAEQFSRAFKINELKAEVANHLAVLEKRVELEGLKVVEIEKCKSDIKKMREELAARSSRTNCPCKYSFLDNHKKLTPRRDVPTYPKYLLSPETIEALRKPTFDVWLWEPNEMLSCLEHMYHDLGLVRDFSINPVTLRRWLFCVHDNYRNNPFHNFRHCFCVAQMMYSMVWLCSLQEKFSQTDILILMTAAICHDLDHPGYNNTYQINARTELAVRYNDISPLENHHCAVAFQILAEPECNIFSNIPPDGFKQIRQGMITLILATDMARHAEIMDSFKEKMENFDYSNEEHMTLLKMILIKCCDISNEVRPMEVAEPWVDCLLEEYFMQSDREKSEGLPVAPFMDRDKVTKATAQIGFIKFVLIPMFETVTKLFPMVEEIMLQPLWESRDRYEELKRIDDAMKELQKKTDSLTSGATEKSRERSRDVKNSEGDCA
smiles,measurement,setting,value
CCOc1cc(C)nc(N(CCOC)S(=O)(=O)c2ccc(NCc3c(F)cncc3F)nc2OC)n1 [Compound 1],potency against GPR61 relative to GPR62 and GPR101,"[1]; GPR61 vs GPR62 and GPR101, peer review reply",roughly 1000 fold
same,IC50,"[1]; stable CHO TREx cells, Supplementary Table 2",0.021 µM
same,pIC50,"[2]; Fig. 3e table, untagged, read-out: GPR61 cAMP IC50 (95% CI), R140A Untagged",5.10
same,cAMP response (Figure 3e source data),"[2]; HiBit R140A, concentration -8.5",4.06 and 2.30 and 2.96 and 2.25 and 3.21
same,sensitivity of the receptor to inverse agonism in the cAMP assay,[2]; R140A mutant vs wild-type,less sensitive
same,pIC50,[3],< 3.70
same,sensitivity of the receptor to the compound in the cAMP assay,[4],no sensitivity
same,pIC50,[5],< 3.70
